Reference: patent US20150315218A1, “SALTS OF PRODRUGS OF PIPERAZINE AND SUBSTITUTED PIPERIDINE ANTIVIRAL AGENTS” (Bristol-Myers Squibb Company, priority 2004, published 2015)
Where a name gives a salt, the structure may show the parent alone. Read-outs that look alike come from different tables or passages of the source. Blank lines part the entries; values can stand above or below the compound they belong to.

Columns and labels:
[1] = IV and PO pharmacokinetic studies of prodrug salts (Iab, Ibb, Icb) in the monkey, with historical parent data; type: in vivo, cynomolgus monkeys; settings: for AUC: read-out: AUCtot; for concentration at 24 hr: read-out: C-24 hr; for Cmax: read-out: Cmax
Procedure: The IV and PO studies of Iab were conducted in a crossover fashion in three male cynomolgus monkeys (11±1.2 kg, Charles River Biomedical Research Foundation, Houston, Tex.). There was a two-week washout period between the IV and PO studies.
In the IV study, Iab was infused via the femoral vein at 1.3 mg/kg (free acid, or 1.1 mg/kg of IVa equivalent) over 5 min at a constant rate of 0.1 mL/kg/min. The concentration of the dosing solution was 2.6 mg/mL, and the dosing volume was 0.5 mL/kg. Serial blood samples were collected from the femoral artery before dosing and at 5, 10, 15, 30, 45 min, 1, 2, 4, 6, 8 and 24 hr after dosing.
In the PO study, the monkeys were fasted overnight before dosing. Iab was administered by oral gavage at 7.1 mg/kg (free acid, or 5.6 mg/kg of IVa equivalent). The concentration of the dosing solution was 14.2 mg/mL, and the dosing volume was 0.5 mL/kg. Serial blood samples were collected before dosing and at 15, 30, 45 min, 1, 2, 4, 6, 8 and 24 hr after dosing.
The IV and PO studies of Ibb were conducted in a crossover fashion in three male cynomolgus monkeys (9.9±2.4 kg, Charles River Biomedical Research Foundation, Houston, Tex.). There was a two-week washout period between the IV and PO studies.
The concentration of the dosing solution was 2.7 mg/mL, and the dosing volume was 0.5 mL/kg. Serial blood samples were collected from the femoral artery before dosing and at 5, 10, 15, 30, 45 min, 1, 2, 4, 6, 8 and 24 hr after dosing.
In the PO study, the monkeys were fasted overnight before dosing. […] The concentration of the dosing solution was 5.8 mg/mL, and the dosing volume was 1 mL/kg. Serial blood samples were collected before dosing and at 15, 30, 45 min, 1, 2, 4, 6, 8 and 24 hr after dosing.
The IV and PO studies of Icb were conducted in a crossover fashion in three male cynomolgus monkeys (10±1.6 kg, Charles River Biomedical Research Foundation, Houston, Tex.). There was a two-week washout period between the IV and PO studies.
The concentration of the dosing solution was 2.8 mg/mL, and the dosing volume was 0.5 mL/kg. Serial blood samples were collected from the femoral artery before dosing and at 5, 10, 15, 30, 45 min, 1, 2, 4, 6, 8 and 24 hr after dosing.
In the PO study, the monkeys were fasted overnight before dosing. […] The concentration of the dosing solution was 9.8 mg/mL, and the dosing volume was 0.5 mL/kg. Serial blood samples were collected before dosing and at 15, 30, 45 min, 1, 2, 4, 6, 8 and 24 hr after dosing.

[2] = Single-dose oral toxicokinetic study of prodrugs in rats; type: in vivo, rat; settings: for concentration at 24 h / Cmax / AUC: plasma; for concentration at 24 h: oral, read-out: C24 h; for Cmax / AUC: po
Procedure: A 1-day oral toxicokinetic study in rats was conducted using the prodrug Iab (monolysine salt). Iab was administered at dosages of 16, 72, and 267 mg/kg (free acid) by oral gavage to three male rats/group using water as the vehicle (solution formulation). The dosages of prodrug free acid correspond to IVa (parent) molar equivalent dosages of 13, 57, and 211 mg/kg, respectively. The endpoint evaluated was plasma toxicokinetics of Iab and IVa in the individual rats.
A 1-day oral toxicokinetic study in rats was conducted by using the prodrug Ibb (monolysine salt). Ibb was administered at dosages of 19, 64, and 236 mg/kg (free acid) by oral gavage to three male rats/group using water as the vehicle (solution formulation).
A 1-day oral toxicokinetic study in rats was conducted using the prodrug Icb (disodium salt). Icb was administered at dosages of 5, 25, and 200 mg/kg (free acid) by oral gavage to three male rats/group using water as the vehicle (solution formulation).

[3] = Single-dose toxicokinetic and tolerability study of prodrugs in dogs; type: in vivo, dog; settings: for AUC(0-inf) / concentration at 24 h / Cmax: plasma; for concentration at 24 h: read-out: C24h
Procedure: A multi-phase study was conducted to evaluate the tolerability of the prodrug, Iab (monolysine salt) at dosages of 24, 90, or 240 mg/kg (free acid, molar equivalent to 19, 71, or 190 mg/kg of parent IVa, respectively) and the toxicokinetics of lab and IVa (4). Iab was administered to two female dogs/group once daily either as an aqueous solution (24 or 90 mg/kg) or dry-filled capsules (24, 90 [once and twice daily] or 240 mg/kg). The endpoints were: clinical signs, body weight, food consumption, and plasma toxicokinetics of lab and IVa. In all cases, a 1-week washout period was used between doses for all phases of the study. […]
On day 1, Icb was administered to one dog/sex/group once daily in dry-filled capsules at the above dosages. A 1-week washout period was used between doses in the study. On day 8, Icb was administered to one dog/sex/group once daily as an aqueous solution at 25 mg/kg or twice daily in dry-filled capsules at 46 or 125 mg/kg BID.

[4] = cynomolgus monkey, plasma, po, 5 mg/kg
[5] = male, cynomolgus monkey, plasma, po, 4.9 mg/kg
[6] = female, dog, 25 mg/kg, dog 2201F, day 8, Icb 25 mg/kg QD aqueous solution
[7] = female, dog, po, 25 mg/kg, dog 2201F, day 1, Icb 25 mg/kg (IVc equiv. 20) QD dry-filled capsules
[8] = female, dog, po, 46 mg/kg, dog 3201F, day 8, Icb 46 mg/kg BID dry-filled capsules
[9] = female, dog, po, 92 mg/kg, dog 3201F, day 1, Icb 92 mg/kg (IVc equiv. 75) QD dry-filled capsules
[10] = female, dog, po, 125 mg/kg, dog 4201F, day 8, Icb 125 mg/kg BID dry-filled capsules, emesis
[11] = female, dog, po, 250 mg/kg, dog 4201F, day 1, Icb 250 mg/kg (IVc equiv. 203) QD dry-filled capsules, emesis
[12] = male, dog, 25 mg/kg, dog 2101M, day 8, Icb 25 mg/kg QD aqueous solution
[13] = male, dog, po, 25 mg/kg, dog 2101M, day 1, Icb 25 mg/kg (IVc equiv. 20) QD dry-filled capsules
[14] = male, dog, po, 46 mg/kg, dog 3101M, day 8, Icb 46 mg/kg BID dry-filled capsules
[15] = male, dog, po, 92 mg/kg, dog 3101M, day 1, Icb 92 mg/kg (IVc equiv. 75) QD dry-filled capsules, emesis
[16] = male, dog, po, 125 mg/kg, dog 4101M, day 8, Icb 125 mg/kg BID dry-filled capsules, emesis
[17] = male, dog, po, 250 mg/kg, dog 4101M, day 1, Icb 250 mg/kg (IVc equiv. 203) QD dry-filled capsules, emesis

T1/2 ([1]; male, cynomolgus monkey, in vivo, iv, […]): 5.34 ± 1.86 min
SMILES: COc1cnc(-n2cnc(C)n2)c2c1c(C(=O)C(=O)N1CCN(C(=O)c3ccccc3)CC1)cn2COP(=O)(O)O [Icb, [3-[(4-benzoylpiperazin-1-yl)(oxo)acetyl]-4-methoxy-7-(3-methyl-1H-1,2,4-triazol-1-yl)-1H-pyrrolo[2,3-c]pyridin-1-yl]methyl dihydrogen phosphate, 2-amino-2-(hydroxymethyl)propane-1,3-diol salt (1:1)]
prodrug concentrations in plasma ([2]; male, CD, rat, in vivo, 200 mg/kg): 0.02 to 0.04 µM | prodrug in plasma ([2]; rat, in vivo, 25 mg/kg): not detected | Emesis (footnote 4) ([3]; both, dog, in vivo): ^4Emesis observed within 2 hours of dosing with capsule remnant present | Emesis (footnote 5) ([3]; both, dog, in vivo): ^5Emesis observed within 2 hours of dosing with no capsule remnant | levels of prodrug detected in some plasma samples ([3]; both, dog, in vivo): ≤ 0.1 µM

AUC ([1]; cynomolgus monkey, plasma, iv, 1 mg/kg): 5 ± 1 µM·h | MRT ([1]; cynomolgus monkey, plasma, iv, 1 mg/kg, read-out: MRT): 52.2 ± 5.1 min | Vd ([1]; cynomolgus monkey, plasma, iv, 1 mg/kg, read-out: Vdss): 0.4 ± 0.097 L/kg | concentration at 24 hr ([1]; cynomolgus monkey, plasma, oral, 5 mg/kg): 0.017 ± 0.011 µM | AUC [1, 4]: 14 ± 4 µM·h | Cmax [1, 4]: 4.2 ± 2.6 µM | bioavailability ([1]; cynomolgus monkey, plasma, monkey, historical parent, PO 5 mg/kg, read-out: Bioavailability (%)): 64% | Tmax ([1]; cynomolgus monkey, plasma, monkey, historical parent, PO 5 mg/kg, read-out: Tmax (hr), PO): 2.3 h | bioavailability ([1]; male, cynomolgus monkey, plasma, oral, 4.9 mg/kg, read-out: Bioavailability): 122% | concentration at 24 hr ([1]; male, cynomolgus monkey, plasma, oral, 4.9 mg/kg): 0.007 ± 0.002 µM | AUC [1, 5]: 24 ± 4.6 µM·h | Cmax [1, 5]: 9.5 ± 1.2 µM | Tmax ([1]; male, cynomolgus monkey, plasma, po, 4.9 mg/kg, read-out: Tmax): 0.92 ± 0.14 h | bioavailability ([1]; male, cynomolgus monkey, plasma, monkey, oral prodrug, read-out: Bioavailability (%) of parent from prodrug): 122% | Tmax ([1]; male, cynomolgus monkey, plasma, monkey, parent after oral prodrug (~4-6 mg/kg parent equivalent), read-out: Tmax (hr), PO): 0.92 h | Tmax ([1]; monkey, PO IVc 5 mg/kg, historical IVc): 2.3 ± 1.5 h
SMILES: COc1cnc(-n2cnc(C)n2)c2[nH]cc(C(=O)C(=O)N3CCN(C(=O)c4ccccc4)CC3)c12 [IVc]
concentration at 24 h ([2]; male, CD, rat, 5 mg/kg): 0.029 µM | concentration at 24 h ([2]; male, CD, rat, 25 mg/kg): 0.35 µM | concentration at 24 h ([2]; male, CD, rat, 200 mg/kg): 58 µM | Cmax ([2]; male, CD, rat, 5 mg/kg): 29 µM | AUC ([2]; male, CD, rat, 5 mg/kg, read-out: AUC from zero to ∞): 109 µM·h | Cmax ([2]; male, CD, rat, 25 mg/kg): 98 µM | AUC ([2]; male, CD, rat, 25 mg/kg, read-out: AUC from zero to ∞): 586 µM·h | AUC ([2]; male, CD, rat, 200 mg/kg): 2920 µM·h | Cmax ([2]; male, CD, rat, 200 mg/kg): 281 µM | time post-dose at which mean maximum plasma concentration (Cmax) was achieved ([2]; rats, single oral dose of prodrug): ≤ 1.7 h | time post-second dose at which mean Cmax of parent was achieved ([3]; dogs, BID dosing of prodrug): 1 to 2 h | time post-dose at which mean Cmax of parent was achieved ([3]; dogs, once daily (QD) dosing of prodrug): 1 to 2 h | AUC(0-inf) [3, 6]: 173 µM·h | concentration at 24 h [3, 6]: 0.107 µM | concentration at 24 h ([3]; female, dog, oral, 25 mg/kg, dog 2201F, day 1, Icb 25 mg/kg (IVc equiv. 20) QD dry-filled capsules): 0.688 µM | Cmax ([3]; female, dog, oral, 25 mg/kg, dog 2201F, day 8, Icb 25 mg/kg QD aqueous solution): 46.8 µM | concentration at 24 h ([3]; female, dog, oral, 46 mg/kg, dog 3201F, day 8, Icb 46 mg/kg BID dry-filled capsules): 0.307 µM | concentration at 24 h ([3]; female, dog, oral, 92 mg/kg, dog 3201F, day 1, Icb 92 mg/kg (IVc equiv. 75) QD dry-filled capsules): 0.202 µM | concentration at 24 h ([3]; female, dog, oral, 125 mg/kg, dog 4201F, day 8, Icb 125 mg/kg BID dry-filled capsules): 1.96 µM | concentration at 24 h ([3]; female, dog, oral, 250 mg/kg, dog 4201F, day 1, Icb 250 mg/kg (IVc equiv. 203) QD dry-filled capsules): 0.704 µM | AUC(0-inf) [3, 7]: 122 µM·h | Cmax [3, 7]: 24.6 µM | AUC(0-inf) [3, 8]: 490 µM·h | Cmax [3, 8]: 104 µM | AUC(0-inf) [3, 9]: 730 µM·h | Cmax [3, 9]: 157 µM | AUC(0-inf) [3, 10]: 596 µM·h | Cmax [3, 10]: 96.9 µM | AUC(0-inf) [3, 11]: 523 µM·h | Cmax [3, 11]: 88.9 µM | AUC(0-inf) [3, 12]: 362 µM·h | concentration at 24 h [3, 12]: 0.547 µM | concentration at 24 h ([3]; male, dog, oral, 25 mg/kg, dog 2101M, day 1, Icb 25 mg/kg (IVc equiv. 20) QD dry-filled capsules): 0.008 µM | Cmax ([3]; male, dog, oral, 25 mg/kg, dog 2101M, day 8, Icb 25 mg/kg QD aqueous solution): 59.4 µM | concentration at 24 h ([3]; male, dog, oral, 46 mg/kg, dog 3101M, day 8, Icb 46 mg/kg BID dry-filled capsules): 10.6 µM | concentration at 24 h ([3]; male, dog, oral, 92 mg/kg, dog 3101M, day 1, Icb 92 mg/kg (IVc equiv. 75) QD dry-filled capsules): 1.9 µM | concentration at 24 h ([3]; male, dog, oral, 125 mg/kg, dog 4101M, day 8, Icb 125 mg/kg BID dry-filled capsules): 54.2 µM | concentration at 24 h ([3]; male, dog, oral, 250 mg/kg, dog 4101M, day 1, Icb 250 mg/kg (IVc equiv. 203) QD dry-filled capsules): 2.61 µM | AUC(0-inf) [3, 13]: 365 µM·h | Cmax [3, 13]: 65.1 µM | AUC(0-inf) [3, 14]: 1140 µM·h | Cmax [3, 14]: 121 µM | AUC(0-inf) [3, 15]: 820 µM·h | Cmax [3, 15]: 117 µM | AUC(0-inf) [3, 16]: 3780 µM·h | Cmax [3, 16]: 226 µM | AUC(0-inf) [3, 17]: 739 µM·h | Cmax [3, 17]: 92.6 µM
